Assay: FRAP activity test and antioxidant evaluation test using rats
Assay type: in vivo, rats of Wistar strain
Conditions: male Wistar rats, oral, 100 mg/kg
Procedure: Male rats of Wistar strain (9 weeks age) were fasted for one night, a pine bark extract mentioned in Example 1 or vitamin C was compulsorily administered via oral route, and blood was collected from tail vein from time to time to prepare plasma samples. FRAP value of the plasma sample was measured by a method of Benzie (Benzie, I. F. F. and Strain, J. J., Anal. Biochem., 1996, Volume 239, pages 70 to 76) and its changes with a lapse of time were traced as an index for antioxidant activity in blood. The plasma sample (10 μL) was added to 990 μL of FRAP reagent containing 20 mM of FeCl3 followed by being allowed to stand at 37° C. for 4 minutes, and changes in absorbance at 593 nm were measured. The same operation was conducted using a solution containing a predetermined concentration of […] sample and, from the changes in absorbance, a calibration curve for FRAP values was prepared.

## O=C1O[C@H]([C@@H](O)CO)C(O)=C1O [vitamin C]
  FRAP value in blood: an increase in the FRAP value was also observed
